According to patent US8334272B2, “Methods for nucleic acid transfer into cells” (Northwestern University, priority 2007, dated 2012):
“Also recorded” adds a separate entry of the source.

Assays:
A549 cells = assay: Luciferase expression after electroporation of pCMV-Lux-DTS plasmid (transfection efficiency); type: cell-based, human; conditions: for luciferase expression versus DMSO (vehicle) treated or wild type cells: A549, 3 hours after electroporation, 1 μM TSA, 3 mM 17b, 1 mM 17-AAG, 10 nM okadaic acid; for exogenous gene expression (luciferase) versus vehicle control: A549, 24 hours after electroporation and 25 hours after drug treatment; for exogenous gene expression as measured by luciferase expression over appropriate control (FIG. 4): A549 cell cultures
Method: Human adenocarcinoma A549 cells (ATCC, #CCL-185, Rockville, Md.) were grown in DMEM supplemented with 10% fetal bovine serum (FBS). A stable line of A549 cells expressing firefly luciferase was constructed by transfection of cells with plasmid pGL4.14[luc2/Hygro] (Promega, Madison, Wis.) and selection with hygromycin. Colonies were pooled and passaged under selection. HIF-1 and HIF-2 knockdowns were created in A549 cells using retroviral methods with the PT67 packaging cell line (Clontech, Mountain View, Calif.). PT67 cells were transfected with 10 to 15 μg of specific shRNA-expressing or empty plasmids using lipofectin (Invitrogen, Carlsbad, Calif.) according to the manufacturer's protocol. Virus-containing medium was supplemented with 8 μg/ml of polybrene (Sigma, St. Louis, Mo.) for infection. Stable HDAC6 knockdown or stable HDAC6 overexpressing A549 cells were a generous gift from T. P. Yao (Duke University). For electroporations, cells were grown to confluency in […] dishes, and rinsed twice in serum- and antibiotic-free media. Five micrograms of plasmids in 500 µl of serum and antibiotic-free DMEM were added to each well and one […] square wave electric pulse was applied using a PetriPulser electrode (BTX, San Diego, Calif.). […] Drugs were used at the following final concentrations: 1 μM TSA, 1 mM Sodium Butyrate, […], 3 mM 17B, 1 mM 17-AAG, and 10 nM Okadaic Acid. […] All luciferase measurements were normalized to total cell protein and reported as fold-increases in expression over DMSO (vehicle-treated). All experiments were performed in triplicate wells and the experiments were repeated at least three times. For statistical analyses, student's t-tests were used. Cells grown on etched coverslips were microinjected as previously described. At least 100 cells were injected for each condition and experiments were repeated three times.
Plasmid pCMV-lux-DTS expresses luciferase from the CMV immediate early promoter and contains the SV40 DNA nuclear targeting sequence downstream of the reporter gene. All plasmids were purified from E. coli using Qiagen Gigaprep kits as described by the manufacturer (Qiagen, Chatsworth, Calif.). Plasmid pDD306, expressing GFP from the CMV promoter and which contains the GeneGrip1 PNA binding site (Gene Therapy Systems, San Diego, Calif.) was labeled with Cy3-labeled PNA as described. Briefly, plasmids were labeled with Cy3-PNA in the manufacturer's labeling buffer at 37° C. for 2 hours followed by isopropanol precipitation to remove unbound Cy3-PNA. Plasmid labeling was verified by agarose gel electrophoresis and fluorescent detection in the absence of ethidium bromide.

acetylated tubulin = assay: Total and acetylated tubulin by immunofluorescence and Western blot; type: cell-based, human; set-up: level of microtubules (polymerized tubulin) / acetylated microtubules after treatment: dose or concentration left out as unconfirmed; conditions: for microtubule (tubulin) acetylation: cell cultures, immunofluorescence, versus treatment controls
Method: Prior to collection, samples were washed once in PBS (37° C.), and stabilized in two 15 minute washes in microtubule stabilization buffer (0.1M PIPES, pH 6.75, 1 mM EGTA, 1 mM MgSO4, 2 M glycerol, protease inhibitors). Cells were then lysed in microtubule lysis buffer (25 mM Tris-HCl, pH 7.4, 0.4 M NaCl and 0.5% SDS). All extracted samples were mixed with SDS-PAGE sample buffer (112.5 mM Tris-HCl, pH 6.8, 10%-mercaptoethanol, 3.6% SDS, 1.8% glycerol, 0.001% bromophenol blue) such that equal amounts of total protein were loaded for each fraction. The samples were boiled for 3 min and separated by 12% SDS-PAGE gels according to the methods previously described by Lugtenberg. Proteins were transferred to nitrocellulose and probed using anti-acetylated (1:1000, Sigma) or anti-tubulin (1:1000, Sigma) in PBS with 5% fat-free powdered milk. Blots were developed with a chemiluminescence detection kit, and autoradiograms were digitized before densitometry using ImageJ (NIH, Bethesda, Md.). All samples were run in duplicate and were from at least three independent experiments. After all treatment regimes, cells were washed with PBS followed by a 10 minute incubation in fixation/permeabilization buffer (60 mM PIPES, 25 mM HEPES, 10 mM EGTA, 3 mM MgCl2, 0.2% Triton X-100, and 3.7% paraformaldehyde). Cells were then washed in PBS and blocked for 1 hour in PBS containing 1 mg/ml BSA. After blocking, the cells were incubated for 1 hour with the appropriate primary antibody in PBS with 0.1 mg/ml BSA, washed in PBS, and reacted for 30 minutes with Alexa 488 or 555 conjugated secondary antibody (1:200, Molecular Probes, Eugene, Oreg.) in PBS with 0.1% BSA. Following a second set of washes in PBS, the silastic membranes were excised from the culture plates, placed face up on a microscope slide, and covered with a coverslip. All images were acquired in OpenLab (Improvision, Lexington, Mass.) with a Hamamatsu Orca II-ER camera attached to Leica DRMX-2 upright fluorescent microscope using a 100× oil-immersion objective.

[1] = tested on: cytoplasmic HDACs (HDAC6); conditions: A549 cytoplasmic extracts
Method: HDAC6 Activity measurements. Cytoplasmic lysates were prepared as previously described to separate HDAC6 from nuclear HDAC activity (36). Cells were then probed for HDAC activity using a fluorescent HDAC activity kit (BioMol International LP, Plymouth Meeting, Pa.). At various times during the development of the assay, the reagents were quenched, allowing for a determination of the relative activity of the cytoplasmic HDACs.

HDAC6 = target: T1, HDAC6 (Homo sapiens, UniProt Q9UBN7); conditions: sodium butyrate 1 mM, Trichostatin A 1 μM where stated; cited from earlier work
T1 sequence (Q9UBN7 1-1215): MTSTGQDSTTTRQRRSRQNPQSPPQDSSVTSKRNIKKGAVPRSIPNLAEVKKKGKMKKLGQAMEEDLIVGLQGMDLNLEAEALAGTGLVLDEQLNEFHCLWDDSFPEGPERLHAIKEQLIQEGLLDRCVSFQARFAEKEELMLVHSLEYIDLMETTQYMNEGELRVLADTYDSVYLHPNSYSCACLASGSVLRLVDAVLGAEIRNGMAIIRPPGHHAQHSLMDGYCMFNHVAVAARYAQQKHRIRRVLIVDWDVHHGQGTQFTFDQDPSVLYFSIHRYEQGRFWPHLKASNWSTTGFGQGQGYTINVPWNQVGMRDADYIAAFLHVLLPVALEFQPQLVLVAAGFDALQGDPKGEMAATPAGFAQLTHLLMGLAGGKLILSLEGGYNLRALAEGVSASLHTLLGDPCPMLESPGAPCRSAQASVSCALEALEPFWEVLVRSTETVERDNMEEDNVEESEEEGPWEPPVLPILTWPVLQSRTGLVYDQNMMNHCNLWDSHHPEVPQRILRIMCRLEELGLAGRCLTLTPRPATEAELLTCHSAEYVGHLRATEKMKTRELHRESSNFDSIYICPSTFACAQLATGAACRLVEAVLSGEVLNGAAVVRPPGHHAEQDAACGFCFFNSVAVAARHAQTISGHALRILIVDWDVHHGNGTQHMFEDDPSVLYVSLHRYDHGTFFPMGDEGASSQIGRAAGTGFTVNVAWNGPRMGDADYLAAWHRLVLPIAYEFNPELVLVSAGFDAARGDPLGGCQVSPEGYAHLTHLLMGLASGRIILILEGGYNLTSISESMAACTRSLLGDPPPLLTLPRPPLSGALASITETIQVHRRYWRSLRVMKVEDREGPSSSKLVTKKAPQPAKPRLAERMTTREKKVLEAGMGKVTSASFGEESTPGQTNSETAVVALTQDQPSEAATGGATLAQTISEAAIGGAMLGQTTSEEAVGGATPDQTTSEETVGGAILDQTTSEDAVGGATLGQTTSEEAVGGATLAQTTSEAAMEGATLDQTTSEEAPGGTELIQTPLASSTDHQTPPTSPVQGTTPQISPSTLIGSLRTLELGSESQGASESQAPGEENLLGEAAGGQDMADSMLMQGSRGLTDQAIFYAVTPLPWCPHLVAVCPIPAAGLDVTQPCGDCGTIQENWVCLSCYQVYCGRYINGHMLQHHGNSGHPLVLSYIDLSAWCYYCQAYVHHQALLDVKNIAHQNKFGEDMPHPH

SMILES | luciferase expression versus DMSO (vehicle) treated or wild type cells (A549 cells) | microtubule (tubulin) acetylation (acetylated tubulin) | exogenous gene expression (luciferase) versus vehicle control (A549 cells) | exogenous gene expression as measured by luciferase expression over appropriate control (FIG. 4) (A549 cells) | further results
C=CCNC1=C2C[C@@H](C)C[C@H](OC)[C@H](O)[C@@H](C)/C=C(\C)[C@H](OC(N)=O)[C@@H](OC)/C=C\C=C(/C)C(=O)NC(=CC1=O)C2=O [17-AAG] | no increase in expression; also recorded: dampened | – | – | – | –
CC(/C=C/C(=O)NO)=C\[C@@H](C)C(=O)c1ccc(N(C)C)cc1 [TSA, trichostatin A] | slight but significant increase | significant microtubule acetylation | significant increases | increased | microtubule (tubulin) acetylation (acetylated tubulin; listed as trichostatin A): increased; cytoplasmic HDAC activity in the assay [1]: quenched; higher increase in expression than sodium butyrate (A549 cells; A549, 24 hours after electroporation, 25 hours after drug): ~10 fold
O=C(CCCCCCC(=O)Nc1ccc([C@H]2O[C@@H](CSc3nc(-c4ccccc4)c(-c4ccccc4)o3)C[C@@H](c3ccc(CO)cc3)O2)cc1)NO [Tubacin, tubacin] | – | – | – | increased | exogenous gene expression as measured by luciferase expression over appropriate control (FIG. 4) (A549 cells; listed as tubacin): greatly increased
COC(=O)Nc1nc2ccc(C(=O)c3cccs3)cc2[nH]1 [nocodazole] | – | – | – | – | acetylated microtubules after treatment (acetylated tubulin; A549, Nocodazole, 3 hours): still remained; level of microtubules (polymerized tubulin) (acetylated tubulin; A549, Nocodazole, 3 hours): greatly diminished
C=C1[C@@H](O)[C@@H]2O[C@]3(CC[C@H](/C=C/[C@@H](C)[C@@H]4CC(C)=C[C@@]5(O[C@H](C[C@@](C)(O)C(=O)O)CC[C@H]5O)O4)O3)CC[C@H]2O[C@@H]1[C@@H](O)C[C@H](C)[C@H]1O[C@@]2(CCCCO2)CC[C@H]1C [okadiac acid, Okadaic Acid] | did not result the increase in expression | – | – | – | –
CCCC(=O)[O-].[Na+] [sodium butyrate] | – | not and not observed | significant increases | – | HDAC inhibition selectivity (HDAC6): does not inhibit HDAC6; also recorded: inhibits all HDACs except for HDAC6
